Several values for one entry are separate records, joined by “and”; a condition that tells them apart may be missing. Identical values can stand only once. Like-named read-outs stand apart in the source and are kept apart here.
Experiments:
[1] = biological target: T1, Human recombinant PDE2A (hPDE2A) (Homo sapiens, UniProt O00408); test: In vitro assay PDE2A (SPA, 3H-cGMP hydrolysis); type: biochemical; settings: for Emax: read-out: hPDE2A Emax
T1 construct: His tag (inferred from metal chelate purification); made in house; host or cells: Sf9 insect cells (baculovirus)

[2] = biological target: T2, Human recombinant PDE3A (hPDE3A) (Homo sapiens, UniProt Q14432); test: In vitro assay PDE3A (SPA, 3H-cAMP hydrolysis); type: biochemical; settings: for IC50: hPDE3B pIC50, read-out: pIC50 (converted); for Emax: read-out: hPDE3B Emax, read-out: Emax;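 for all read-outs here: the method names PDE3A and the table heading PDE3B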
T2 construct: purchased Scottish Biomedical; host or cells: Sf9 insect cells
How it was run: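 Human PDE3A, cloned from brain, as partially purified Sf9 lysate. Substrate 0.4 μM cAMP plus [3H]-cAMP (2.4 μCi/ml final) in 50 mM Tris pH 7.8, 8.3 mM MgCl2, 1.7 mM EGTA, 60 min at room temperature, 1% DMSO final. Hydrolysis read by SPA scintillation counting against no-enzyme blanks and DMSO controls.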

[3] = biological target: T3, Human recombinant PDE10A (hPDE10A) (Homo sapiens, UniProt Q9Y233); test: In vitro assay PDE10A, human clone (SPA, 3H-cAMP hydrolysis); type: biochemical
T3 construct: His tag (inferred from metal chelate purification); made in house; host or cells: Sf9 insect cells (baculovirus)
How it was run: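 Human recombinant PDE10A was expressed in Sf9 cells via baculovirus and incubated with compound in 50 mM Tris pH 7.8, 8.3 mM MgCl2, 1.7 mM EGTA. Substrate was 60 nM cAMP plus 0.008 μCi 3H-cAMP for 60 min at room temperature, read by SPA scintillation counting. Controls used 1% DMSO, and blanks omitted enzyme.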

[4] = biological target: T4, PDE2A (Rattus norvegicus, UniProt Q01062); test: PDE2 occupancy by test compounds, ex-vivo autoradiography with [3H]B-17a; type: in vivo, Male Wistar rats; settings: 10 mg/kg, percentage receptor occupancy, ex-vivo autoradiography, striatum
T4 construct: Twenty μm-thick striatal sections were cut; from tissue; host or cells: rat brain, striatal sections
T4 sequence (Q01062 1-928): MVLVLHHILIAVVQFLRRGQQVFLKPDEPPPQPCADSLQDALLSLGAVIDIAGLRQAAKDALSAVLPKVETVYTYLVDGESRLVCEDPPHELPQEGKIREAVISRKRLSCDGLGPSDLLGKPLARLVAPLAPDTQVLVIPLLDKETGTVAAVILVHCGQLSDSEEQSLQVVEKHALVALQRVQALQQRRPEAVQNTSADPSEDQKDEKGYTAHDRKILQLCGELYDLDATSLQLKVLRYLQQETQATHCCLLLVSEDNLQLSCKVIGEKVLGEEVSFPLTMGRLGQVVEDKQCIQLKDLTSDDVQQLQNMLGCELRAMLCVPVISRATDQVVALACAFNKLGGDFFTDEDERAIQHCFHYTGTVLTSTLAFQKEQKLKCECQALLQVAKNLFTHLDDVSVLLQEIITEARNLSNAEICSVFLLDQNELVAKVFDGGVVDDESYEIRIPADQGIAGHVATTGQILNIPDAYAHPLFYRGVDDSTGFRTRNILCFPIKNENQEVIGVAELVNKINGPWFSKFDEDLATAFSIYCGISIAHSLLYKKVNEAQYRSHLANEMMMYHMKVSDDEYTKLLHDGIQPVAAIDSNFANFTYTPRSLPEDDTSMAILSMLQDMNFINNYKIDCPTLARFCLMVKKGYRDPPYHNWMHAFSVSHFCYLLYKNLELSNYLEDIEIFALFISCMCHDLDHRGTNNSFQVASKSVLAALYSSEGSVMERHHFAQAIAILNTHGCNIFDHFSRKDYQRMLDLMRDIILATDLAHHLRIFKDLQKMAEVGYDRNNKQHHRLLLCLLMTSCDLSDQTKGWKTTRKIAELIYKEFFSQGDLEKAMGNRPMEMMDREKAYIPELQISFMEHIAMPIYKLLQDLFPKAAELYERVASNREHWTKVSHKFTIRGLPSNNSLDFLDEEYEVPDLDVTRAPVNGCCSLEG

[5] = read-out: hPDE2A pIC50 (converted)
[6] = human clone by default (no (r) mark), read-out: hPDE10A2 or rPDE10A2 Emax
[7] = human clone by default (no (r) mark), read-out: hPDE10A2 or rPDE10A2 pIC50 (converted)
[8] = human recombinant PDE2A, 10 μM cGMP substrate, read-out: hPDE2A pIC50 (converted)
[9] = human clone (h), default, read-out: hPDE10A2 Emax
[10] = human clone (h), default, read-out: hPDE10A2 pIC50 (converted)
[11] = hPDE2A pIC50, human recombinant PDE2A, 10 μM cGMP substrate

T2 sequence (Q14432 whole entry): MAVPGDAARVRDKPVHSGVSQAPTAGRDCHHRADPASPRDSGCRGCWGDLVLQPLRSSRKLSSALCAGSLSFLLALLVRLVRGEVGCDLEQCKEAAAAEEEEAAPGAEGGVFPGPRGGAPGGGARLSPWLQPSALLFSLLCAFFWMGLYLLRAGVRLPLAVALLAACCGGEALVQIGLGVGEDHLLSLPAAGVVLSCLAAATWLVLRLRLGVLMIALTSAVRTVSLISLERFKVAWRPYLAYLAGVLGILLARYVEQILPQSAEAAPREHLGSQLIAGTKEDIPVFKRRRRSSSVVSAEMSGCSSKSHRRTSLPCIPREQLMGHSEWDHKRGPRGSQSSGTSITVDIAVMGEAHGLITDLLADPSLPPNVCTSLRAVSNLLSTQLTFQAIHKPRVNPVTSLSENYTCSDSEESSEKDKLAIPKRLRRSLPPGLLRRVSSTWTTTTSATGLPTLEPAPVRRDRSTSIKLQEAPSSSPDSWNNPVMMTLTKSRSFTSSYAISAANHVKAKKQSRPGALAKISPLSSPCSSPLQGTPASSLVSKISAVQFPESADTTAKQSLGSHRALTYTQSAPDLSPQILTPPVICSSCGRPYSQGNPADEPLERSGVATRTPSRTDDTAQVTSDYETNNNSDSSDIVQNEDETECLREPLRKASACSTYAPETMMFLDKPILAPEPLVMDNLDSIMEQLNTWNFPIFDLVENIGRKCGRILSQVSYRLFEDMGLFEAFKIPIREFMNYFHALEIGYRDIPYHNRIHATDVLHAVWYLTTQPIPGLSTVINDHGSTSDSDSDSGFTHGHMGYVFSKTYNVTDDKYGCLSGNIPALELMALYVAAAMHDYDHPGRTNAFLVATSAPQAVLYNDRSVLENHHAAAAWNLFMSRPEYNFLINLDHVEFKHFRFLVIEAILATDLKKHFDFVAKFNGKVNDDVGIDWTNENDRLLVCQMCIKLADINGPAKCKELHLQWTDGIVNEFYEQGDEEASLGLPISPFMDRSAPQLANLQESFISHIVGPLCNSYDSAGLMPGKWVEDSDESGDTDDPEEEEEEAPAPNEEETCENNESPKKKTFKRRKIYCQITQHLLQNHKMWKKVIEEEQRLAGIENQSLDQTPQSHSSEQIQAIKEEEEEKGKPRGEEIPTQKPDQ
T3 sequence (Q9Y233 267-1055): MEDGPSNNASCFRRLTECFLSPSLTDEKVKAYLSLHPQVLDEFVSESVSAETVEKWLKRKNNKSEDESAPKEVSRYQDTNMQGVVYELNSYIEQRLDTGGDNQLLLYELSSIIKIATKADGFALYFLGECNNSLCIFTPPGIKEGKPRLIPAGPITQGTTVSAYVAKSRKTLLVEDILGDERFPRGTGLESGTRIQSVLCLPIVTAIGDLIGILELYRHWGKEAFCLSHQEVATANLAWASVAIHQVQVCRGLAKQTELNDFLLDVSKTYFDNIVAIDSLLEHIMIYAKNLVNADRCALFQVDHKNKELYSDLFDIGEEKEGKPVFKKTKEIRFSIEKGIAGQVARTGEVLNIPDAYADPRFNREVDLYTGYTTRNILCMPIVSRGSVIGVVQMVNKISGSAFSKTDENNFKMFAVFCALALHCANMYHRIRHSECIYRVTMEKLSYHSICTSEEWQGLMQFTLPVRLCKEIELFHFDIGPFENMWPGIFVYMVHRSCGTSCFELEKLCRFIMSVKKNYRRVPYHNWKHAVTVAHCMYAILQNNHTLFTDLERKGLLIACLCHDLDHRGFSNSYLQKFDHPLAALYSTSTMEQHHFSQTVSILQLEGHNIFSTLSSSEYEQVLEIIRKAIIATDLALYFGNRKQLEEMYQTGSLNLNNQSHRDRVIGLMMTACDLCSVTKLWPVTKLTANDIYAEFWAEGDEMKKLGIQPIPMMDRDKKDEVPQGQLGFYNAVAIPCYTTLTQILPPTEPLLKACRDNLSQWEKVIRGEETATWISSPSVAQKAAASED
T1 sequence (O00408 whole entry): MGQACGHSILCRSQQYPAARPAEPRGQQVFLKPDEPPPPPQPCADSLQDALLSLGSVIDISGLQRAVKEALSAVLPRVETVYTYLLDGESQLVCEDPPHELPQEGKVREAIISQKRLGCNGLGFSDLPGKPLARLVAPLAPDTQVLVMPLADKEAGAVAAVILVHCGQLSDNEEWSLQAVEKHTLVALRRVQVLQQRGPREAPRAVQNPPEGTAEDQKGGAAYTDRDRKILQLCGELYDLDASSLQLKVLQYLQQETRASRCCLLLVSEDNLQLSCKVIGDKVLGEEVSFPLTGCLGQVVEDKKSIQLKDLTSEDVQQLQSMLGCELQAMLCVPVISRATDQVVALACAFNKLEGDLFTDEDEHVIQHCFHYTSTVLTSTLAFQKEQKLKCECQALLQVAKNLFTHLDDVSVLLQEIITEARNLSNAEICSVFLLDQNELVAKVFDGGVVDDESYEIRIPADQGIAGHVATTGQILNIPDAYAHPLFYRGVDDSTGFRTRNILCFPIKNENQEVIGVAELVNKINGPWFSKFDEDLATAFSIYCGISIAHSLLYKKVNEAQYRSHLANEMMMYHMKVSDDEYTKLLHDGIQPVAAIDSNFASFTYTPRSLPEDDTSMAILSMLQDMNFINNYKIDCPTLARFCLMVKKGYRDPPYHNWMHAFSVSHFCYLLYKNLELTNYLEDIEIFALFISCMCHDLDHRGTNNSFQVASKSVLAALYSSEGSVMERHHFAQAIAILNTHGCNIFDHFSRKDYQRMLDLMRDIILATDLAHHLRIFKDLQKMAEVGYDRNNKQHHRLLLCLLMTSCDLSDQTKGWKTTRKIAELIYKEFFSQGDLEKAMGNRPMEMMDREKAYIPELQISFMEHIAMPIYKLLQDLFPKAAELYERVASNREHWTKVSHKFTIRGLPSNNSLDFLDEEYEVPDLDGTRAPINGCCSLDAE

SMILES | Emax [1] [%] | IC50 [1, 5] [nM] | IC50 [2] [nM] | Emax [2] [%] | Emax [3, 6] [%] | IC50 [3, 7] [nM] | receptor occupancy at 10 mg/kg ([4]; po, route PO (oral)) [%] | melting point [°C] | IC50 [1, 8] | Emax ([1]; human recombinant PDE2A) [%] | Emax [3, 9] [%] | IC50 [3, 10] | receptor occupancy at 10 mg/kg ([4]; sc, route SC (subcutaneous)) [%] | hPDE3B Emax [2] | receptor occupancy at 10 mg/kg ([4]; route SC (subcutaneous)) [%] | IC50 ([1]; hPDE2A pIC50) [nM] | IC50 [1, 11] [nM] | hPDE10A2 Emax ([3]; human clone (h), default) | receptor occupancy at 10 mg/kg ([4]; route PO (oral)) [%]
C[C@@H]1CCN(C(=O)c2ccc3ncc(F)cc3c2)C[C@H]1c1cc(C(F)F)nc2ncnn12 [Compound 332] | 99 | 4.79 | 1200 | 90 | 98 | 30.9 | 8 | 183.18 |  |  |  |  |  |  |  |  |  |  | 
Cc1cc(C(=O)N2CC[C@@H](C)[C@H](c3cc(C(F)F)nc4ncnn34)C2)cnc1C [Compound 49] | 99 | 2.09 | 5750 | 42 |  |  |  | 263.81 | 2.09 nM | 99 | 95 | 513 nM | 12 |  |  |  |  |  | 
Cc1cc(C(=O)N2[C@H]3CC[C@H](c4cc(C(F)F)nc5ncnn45)[C@@H]2CC3)cc(C)n1 [Compound 29] | 101 | 1.51 | > 10000 |  |  |  |  | 176.52 | 1.51 nM | 101 | 90 | 692 nM |  | 18 | 31 |  |  |  | 
Cc1cc(C#N)cc(C(=O)N2CC[C@@H](C)[C@H](c3cc(C(F)F)nc4ncnn34)C2)c1 [Compound 131] | 98 |  | 7760 | 61 |  |  | 0 | 224.39 |  |  | 99 | 40.7 nM |  |  |  | 2.45 | 2.45 |  | 
Cc1cc(Cl)cc(C(=O)N2CC[C@@H](C)[C@H](c3cc(C(F)F)nc4ncnn34)C2)c1 [Compound 102] | 100 |  | > 1000 | 44 |  |  | -4 | 215.44 |  |  | 95 | 26.3 nM |  |  |  | 0.676 | 0.676 |  | 
C[C@@H]1CCN(C(=O)c2ccc3ocnc3c2)C[C@H]1c1cc(C(F)F)nc2ncnn12 [Compound 116] | 101 | 1.12 | 2190 | 82 |  |  |  | 192.09 | 1.15 nM and 1.12 nM | 100 | 99 | 9.77 nM and 79.4 nM | 3 |  |  |  |  | 98 | 
O=C(c1ccc2occc2c1)N1[C@H]2CC[C@H](c3cc(C(F)F)nc4ncnn34)[C@@H]1CC2 [Compound 353] | 99 | 3.39 | 4790 | 69 | 94 | 977 |  | 230.66 |  |  |  |  |  |  |  |  |  |  | 15
Cc1nc2ccc(C(=O)N3CC[C@@H](C)[C@H](c4cc(C(F)F)nc5ncnn45)C3)cc2o1 [Compound 127] | 99 | 2.24 | 437 | 94 |  |  | 34 | 139.13 | 2.24 nM | 99 | 99 | 25.7 nM | 53 |  |  |  |  |  | 
C[C@@H]1CCN(C(=O)c2ccc(OC(F)F)c(F)c2)C[C@H]1c1cc(C(F)F)nc2ncnn12 [Compound 192] | 99 | 9.33 | 724 | 95 |  |  | -13 | 110.16 | 9.33 nM | 99 | 99 | 72.4 nM |  |  |  |  |  |  | 
Cc1cnc(C(F)(F)F)cc1C(=O)N1CC[C@@H](C)[C@H](c2cc(C(F)F)nc3ncnn23)C1 [Compound 52] | 101 | 13.8 | > 10000 | 22 |  |  | 2 | 228.39 | 13.8 nM | 101 | 76 | 3020 nM |  |  |  |  |  |  | 
COc1cc(C(=O)N2CC[C@@H](C)[C@H](c3cc(C(F)F)nc4ncnn34)C2)ccc1Cl [Compound 130] | 100 | 2.45 | 1740 | 87 |  |  | 0 | 193.85 | 2.45 nM | 100 | 96 | 135 nM |  |  |  |  |  |  | 
COc1ccc(C(=O)N2CC[C@@H](C)[C@H](c3cc(C(F)F)nc4ncnn34)C2)cc1OC(F)F [Compound 133] | 100 | 2.95 | 1620 | 85 |  |  | -19 | 152.33 | 2.95 nM | 100 | 98 | 135 nM |  |  |  |  |  |  | 
C[C@@H]1CCN(C(=O)c2ccc(Cl)c(C3CC3)c2)C[C@H]1c1cc(C(F)F)nc2ncnn12 [Compound 72] | 100 | 1.02 | > 1000 | 46 |  |  | 0 | 177.6 | 1.02 nM | 100 | 92 | 105 nM |  |  |  |  |  |  | 

Reference: patent US10947242B2, “[1,2,4]triazolo[1,5and#8208;A]pyrimidine compounds as PDE2 inhibitors” (Janssen Pharmaceutica NV, priority 2016, dated 2021)
